Data from patent publication US20230201226A1, “COMBINATION THERAPY FOR REDUCING DRUG-INDUCED NEPHROTOXICITY, DYSLIPIDEMIA AND HYPERGLYCEMIA” (Yissum Research Development Company of the Hebrew …, priority 2020, published 2023).

Assays:
[1] = system: human proximal tubule cells (hPTCs); details: 48 hours
[2] = system: Human primary proximal tubule cells (hPTC); experiment: Phospholipidosis (Red Phospholipidosis reagent) and neutral lipid (Green LipidTox) staining of kidney cells exposed to kidney damaging agents; format: cell-based; details: 48 hours
Experimental: Testing the effect of combination therapy on human kidney cells exposed to kidney damaging agents—Human primary proximal tubule cells (hPTC) were seeded at density of 10,000 cells/cm^2 in a black 96-well plate. When the cells reach 80% density, treatments were induced. […] The drugs were induced either alone (controls) or in combination with Empagliflozin (SGLT2i) at 5 μM or Fenofibrate at 20 μM, themselves in combination with Quercetin at 20 μM. All different solutions included 1× Red Phospholipidosis staining reagent as well. hPTC were incubated with the different combinations for 48 hours at 37° C. 5% CO2 […]. After 48 hours, the media were removed and replaced with Green LipidTox stain to stain for neutral lipids in green (diluted at 1:200 in hPTC medium). After 45 minutes of incubation at 37° C., the plate was mounted onto a Zeiss epifluorescent microscope for quantification. Each condition was tested in three biological replicates, and light settings were the same for all the images. Images were analyzed with ImageJ. […]

Compound | survival of human proximal tubule cells (hPTCs) ([1]; co-administration with 1 mM gentamicin, Empagliflozin 5 μM or Fenofibrate 20 μM) | prevention of Cyclosporine A, Cisplatin and Gentamicin induced lipotoxicity by co-administration ([2]; Cyclosporine A 1 μM, Cisplatin 1 μM or Gentamicin 1 mM, Empagliflozin 5 μM or Fenofibrate 20 μM) | cell death ([1]; hPTC, 1 mM gentamicin by itself) | induced lipotoxicity of the kidneys (phospholipids and neutral lipids) ([2]; kidney damaging agent alone: Cyclosporine A 1 μM, Cisplatin 1 μM, Gentamicin 1 mM)
OC[C@H]1O[C@@H](c2ccc(Cl)c(Cc3ccc(O[C@H]4CCOC4)cc3)c2)[C@H](O)[C@@H](O)[C@@H]1O [empagliflozin, Empagliflozin] | dramatically increased the survival | prevented |  | 
Gentamicin |  |  | induced massive cell death | induced lipotoxicity
